Columns and labels:
[1] = Cytotoxicity to J774 macrophages (Alamar Blue); assay type: cell-based; details: mouse, read-out: CC50 (µM) JJ74
Description: (§1) J774 macrophages were seeded into 96-well plates at a cell density of 1 × 10^4 cells/well in a DMEM medium supplemented with 10% fetal bovine serum (FBS; GIBCO) and 50 µg/mL of gentamicin (Life Technologies, Carlsbad, CA, USA) and incubated for 24 h at 37 °C and 5% CO2. After that time, each compound was added in six concentrations (50–1.56 µM), in triplicate, and incubated for 72 h. At the end of treatment, 20 µL/well of Alamar Blue (Invitrogen) was added to the plates for 4 h. […]
(§2) As a positive control, gentian violet was used at concentrations ranging from 0.04 to 10 µM. CC50 values were calculated using data from three independent experiments.
(§3) To determine the cytotoxicity concentration of 50% of J774 macrophages (CC50), we used non-linear regression. One-way analysis of variance and Newman–Keuls multiple comparison tests were employed by using Graph Pad Prism version 8.0.1 (Graph Pad Software; San Diego, CA, USA). Differences were considered significant when the values of p were < 0.05. The data are representative of at least two or three experiments.

[2] = tested on: IL-1β; test: IL-1β production by peritoneal macrophages stimulated with LPS + IFN-γ (ELISA); assay type: cell-based, BALB/c mice; details: 10, 20 and 40 µM, 24 h, p < 0.05
Description: (§4) Immortalized J774 macrophages (2 × 10^5 cells/well) or peritoneal macrophages (2 × 10^5 cells/well) were incubated in 96-well plates in a DMEM medium supplemented with 10% FBS and 50 µg/mL of gentamicin, in triplicate, stimulated or not with LPS (500 ng/mL) and IFN-γ (5 ng/mL), and treated or not with different concentrations of the evaluated ferrocenyl-N-acyl hydrazones. The cells were incubated for 4 or 24 h at 37 °C and 5% CO2. Cell-free supernatants were collected after 4 h (for TNFα measurement) and 24 h (for IL-1β, TNFα, and nitrite quantifications), and kept at −80 °C until use.
(§5) The dosage of cytokines IFN-γ, IL-1β, IL-2, IL-4, and TNFα was performed from the supernatant of peritoneal macrophages or splenocytes were determined by enzyme-linked immunosorbent assay (ELISA), using DuoSet kits from R&D Systems, according to the manufacturer’s instructions. Nitric oxide production was estimated in macrophage culture supernatants harvested at 24 h using the Griess method for nitrite quantification.

[3] = tested on: J774 macrophages; test: Cytotoxicity to J774 macrophages (Alamar Blue); assay type: cell-based; details: 72 h, read-out: CC50 (µM) JJ74
Description: as §1, §2, §3

[4] = tested on: LPS-induced endotoxic shock; test: LPS-induced endotoxin shock (survival); assay type: in vivo, BALB/c mice
Description: Groups of five male BALB/c mice (4 weeks of age) were used for the LPS lethality assays. Mice were treated with different doses of SintMed150 (50 or 100 mg/kg), dexamethasone (25 mg/kg), or vehicle (solution containing 30% sorbitol, 10% Tween 80, and 60% saline), by intraperitoneal (i.p.) route. Ninety minutes later, animals were challenged with 600 µg of LPS (from serotype 0111:B4 Escherichia coli, Sigma-Aldrich) in saline, by i.p. route. The survival rate was then monitored daily during 4 days.

[5] = tested on: IL-2; test: IL-2 production by splenocytes stimulated with concanavalin A (ELISA); assay type: cell-based, BALB/c mice; details: 10, 20, 40 µM; Con A 5 µg/mL; 24 h
Description: (§6) BALB/c splenocyte suspensions were prepared in a DMEM medium supplemented with FBS and gentamicin. Splenocytes (5 × 10^6 cells/well) were plated in 24-well plates, in triplicate, and stimulated or not with concanavalin A (Con A; 5 µg/mL, Sigma-Aldrich). To evaluate lymphocyte function, splenocytes were activated in the absence or presence of various concentrations of SintMed149 and SintMed150 (10, 20, and 40 µM). After 24 h of treatment, cell-free supernatants were collected and kept at −80 °C until use.
as §5

[6] = tested on: IL-4; test: IL-4 production by splenocytes stimulated with concanavalin A (ELISA); assay type: cell-based, BALB/c mice; details: 10, 20, 40 µM; Con A 5 µg/mL; 24 h
Description: as §6, §5

[7] = tested on: nitrite production; test: Nitrite production by activated peritoneal macrophages (Griess); assay type: cell-based, BALB/c mice; details: 10, 20 and 40 µM; LPS + IFN-γ; p < 0.05
Description: as §4, §5

[8] = tested on: IFN-γ; test: IFN-γ production by splenocytes stimulated with concanavalin A (ELISA); assay type: cell-based, BALB/c mice; details: 10, 20, 40 µM; Con A 5 µg/mL; 24 h
Description: as §6, §5

[9] = tested on: peritoneal macrophages; test: Cytotoxicity to peritoneal macrophages activated with LPS + IFNγ (Alamar Blue); assay type: cell-based, BALB/c mice; details: all concentrations tested (10, 20, 40 µM)
Description: The second set of experiments was performed using peritoneal macrophages activated with LPS (500 ng/mL, Sigma-Aldrich) and IFNγ (5 ng/mL; Sigma-Aldrich).
Peritoneal exudate macrophages were obtained by washing, with a cold DMEM medium, the peritoneal cavity of BALB/c mice 4–5 days after injection of 3% thioglycolate (Sigma-Aldrich) in saline (1.5 mL per mouse). Cells were seeded into 96-well plates at a cell density of 1 × 10^5 cells/well in a DMEM medium supplemented with 10% FBS and 50 µg/mL of gentamicin and incubated for 24 h at 37 °C and 5% CO2. […] At the end of treatment, 20 µL/well of Alamar Blue (Invitrogen) were added to the plates for 10 h. Colorimetric readings were performed at 570 and 600 nm using a SpectraMax 190 Microplate Reader (Molecular Devices, Sunnyvale, CA, USA).

[10] = tested on: TNFα; test: TNFα production by peritoneal macrophages stimulated with LPS + IFN-γ (ELISA); assay type: cell-based, BALB/c mice; details: 10, 20 and 40 µM, 4 h, p < 0.05
Description: as §4, §5

[11] = Acute toxicity in mice (single oral dose); assay type: in vivo, BALB/c mice; details: for Changes in the eyes / Changes in the fur / Changes in the skin / Coma / Convulsions / Diarrhea / Lethargy / Salivation / Sleep / Tremors: observed daily for 14 days; for Mortality or signs of toxicity: 2 weeks
Description: Male BALB/c mice (6–8 weeks of age; n = 6/group) were randomized into three groups and treated orally with a single dose of SintMed150 (50 or 100 mg/kg) or vehicle (solution containing 30% sorbitol, 10 % Tween 80, and 60% saline). Animals were monitored for signs of general toxicity for 2 weeks after treatment. Observations involved changes in eyes, fur, and skin, and the occurrence of tremors, salivation, convulsions, diarrhea, sleep, lethargy, and coma. Body weights were taken and recorded at days 0, 7, and 14.

[12] = tested on: carrageenan-induced acute peritonitis; test: Carrageenan-induced acute peritonitis (neutrophil migration); assay type: in vivo, BALB/c mice; details: 100 mg/kg orally 24 and 1 h before carrageenan; compared to vehicle
Description: Next, animals were challenged with a 250 μL injection of carrageenan (1 mg/mL; intraperitoneal route). After 4 h, animals were euthanized and peritoneal exudates were harvested by peritoneal lavage using 2.5 mL of saline solution. Cells were centrifuged at 400× g for 10 min, at 4 °C. The pellet was resuspended in saline (1 mL). Total leukocytes in the peritoneal fluid were determined in a Neubauer chamber after dilution in Trypan blue stain. Differential counting of neutrophils was carried out in rapid panotype-stained cytospin preparations. A differential count of 300 cells was made in a blinded fashion and according to standard morphologic criteria.

[13] = tested on: nitric oxide production; test: Inhibition of nitric oxide (nitrite) production in J774 macrophages stimulated with LPS + IFN-γ (Griess); assay type: cell-based; details: 24 h incubation with compounds and LPS plus IFN-γ
Description: as §4, §5

CN(C)c1ccc(C(=C2C=CC(=[N+](C)C)C=C2)c2ccc(N(C)C)cc2)cc1 [GV, gentian violet, reference compound]
CC50 at 72 h [1]: 0.8 µM

O=C(N/N=C/[c-]1cccc1)c1ccccc1Oc1ccccc1.[Fe+2].c1cc[cH-]c1 [SintMed150, (E)-N′-(Ferrocenylmethylidene)-2-phenoxybenzohydrazide]
IL-1β production [2]: inhibitory effect | CC50 [3]: > 50 µM | Survival ([4]; 50 mg/kg, third day after lethal LPS): already died | Survival ([4]; 100 mg/kg, fourth day after lethal LPS, p < 0.05): 20% | Survival time in comparison with the vehicle group ([4]; 50 or 100 mg/kg, lethal LPS): longer survival time | IL-2 levels [5]: significant and concentration-dependent reduction | IL-4 levels [6]: did not significantly reduce | Nitrite production [7]: inhibited, in a concentration-dependent manner | IFN-γ levels [8]: performed the same feat | Cytotoxicity (cell viability) in peritoneal macrophages [9]: not cytotoxic | TNF production [10]: inhibitory effect | Changes in the eyes ([11]; 50 mg/kg single oral dose): No changes | Changes in the fur ([11]; 50 mg/kg single oral dose): No changes | Changes in the skin ([11]; 50 mg/kg single oral dose): No changes | Coma ([11]; 50 mg/kg single oral dose): Absent | Convulsions ([11]; 50 mg/kg single oral dose): Absent | Diarrhea ([11]; 50 mg/kg single oral dose): Absent | Lethargy ([11]; 50 mg/kg single oral dose): Absent | Salivation ([11]; 50 mg/kg single oral dose): Absent | Sleep ([11]; 50 mg/kg single oral dose): Usual | Tremors ([11]; 50 mg/kg single oral dose): Absent | Body weight ([11]; 50 mg/kg, day 0): 20.9 (±1.1) | Body weight ([11]; 50 mg/kg, day 7): 21.1 (±1.1) | Body weight ([11]; 50 mg/kg, day 14): 21.7 (±0.9) | Changes in the eyes ([11]; 100 mg/kg single oral dose): No changes | Changes in the fur ([11]; 100 mg/kg single oral dose): No changes | Changes in the skin ([11]; 100 mg/kg single oral dose): No changes | Coma ([11]; 100 mg/kg single oral dose): Absent | Convulsions ([11]; 100 mg/kg single oral dose): Absent | Diarrhea ([11]; 100 mg/kg single oral dose): Absent | Lethargy ([11]; 100 mg/kg single oral dose): Absent | Salivation ([11]; 100 mg/kg single oral dose): Absent | Sleep ([11]; 100 mg/kg single oral dose): Usual | Tremors ([11]; 100 mg/kg single oral dose): Absent | Body weight ([11]; 100 mg/kg, day 0): 20.1 (±0.8) | Body weight ([11]; 100 mg/kg, day 7): 20.4 (±0.7) | Body weight ([11]; 100 mg/kg, day 14): 21.0 (±0.7) | Mortality or signs of toxicity ([11]; single oral dose 50 mg/kg): did not cause mortality or the appearance of any sign of toxicity | Mortality or signs of toxicity ([11]; single oral dose 100 mg/kg): did not cause mortality or the appearance of any sign of toxicity | Body weight compared to vehicle-treated mice ([11]; single oral dose 50 or 100 mg/kg): no difference in body weight | Reduction in neutrophil migration [12]: 44.6% | Inhibition of NO (%) Production at 40 μM [13]: 74.2 (±0.7) %

Source: publication PMC9737981, “Molecular Hybridization Strategy on the Design, Synthesis, and Structural Characterization of Ferrocene-N-acyl Hydrazones as Immunomodulatory Agents” (Molecules, 2022)
